The source of these data is ChEMBL document CHEMBL1151504, “Structure-activity relationships of double-strand RGD peptides as GPIIb/IIIa receptor antogonists” (Bioorg Med Chem Lett, 1994).

Numbered stars: 1 amine (or outer) side, 2 acyl side, 3 side chain; on linkers, the order of the positions; unused ones are H or OH. Bridge positions count the residues as written; N and C are the ends. Square brackets hold non-standard residues; d marks the D form. Peptide text beside a SMILES is read from it. I, II: the chains in the order shown. * marks the point of attachment. Benzoyl(4-guanidino) = N=C(N)Nc1ccc(C(=O)*)cc1; X1 = NC(=O)c1cc(N[*:1])cc(N[*:2])c1; Adipoyl = O=C(CCCCC(=O)[*:2])[*:1]; Glutaryl = O=C(CCCC(=O)[*:2])[*:1]; Suc = O=C(CCC(=O)[*:2])[*:1]; X2 = O=C1Oc2ccccc2CC1C(=O)*; 3Abz = Nc1cccc(C(=O)O)c1; 4Abz = Nc1ccc(C(=O)O)cc1; 2Abz = Nc1ccccc1C(=O)O; Hexanoyl = CCCCCC(=O)*; Bz = O=C(c1ccccc1)*

The test is filed under the species Homo sapiens. Put plainly: In vitro inhibition of ADP induced human platelet aggregation in platelet rich plasma(PRP) and presence of Tris buffer. The class given is functional.
For the molecule `CCCCCC(=O)N[C@@H](CCCN=C(N)N)C(=O)NCC(=O)N[C@@H](CC(=O)O)C(=O)N[C@@H](Cc1ccccc1)C(=O)N1CCC[C@H]1C(=O)NCC(=O)Nc1cc(NC(=O)CNC(=O)[C@H]2CCCN2C(=O)[C@@H](Cc2ccccc2)NC(=O)[C@@H](CC(=O)O)NC(=O)CNC(=O)[C@@H](CCCN=C(N)N)NC(=O)CCCCC)cc(C(N)=O)c1`, the IC50 (as a rule, the concentration at which inhibition is half-maximal) worked out at 0.35 µM.
The value for `N=C(N)NCCC[C@H](NC(=O)c1ccccc1)C(=O)NCC(=O)N[C@@H](CC(=O)O)C(=O)N[C@@H](Cc1ccccc1)C(=O)NCCCC[C@H](NC(=O)[C@H](Cc1ccccc1)NC(=O)[C@H](CC(=O)O)NC(=O)CNC(=O)[C@H](CCCN=C(N)N)NC(=O)c1ccccc1)C(N)=O` was 2.6 µM; that for `NC(=O)C1CC(NC(=O)[C@H](Cc2ccccc2)NC(=O)[C@H](CC(=O)O)NC(=O)CNC(=O)[C@@H](N)CCCN=C(N)N)CC(NC(=O)[C@H](Cc2ccccc2)NC(=O)[C@H](CC(=O)O)NC(=O)CNC(=O)[C@@H](N)CCCN=C(N)N)C1` (stereo partly specified) was 50 µM; that for `CCCCCC(=O)N[C@@H](CCCN=C(N)N)C(=O)NCC(=O)N[C@@H](CC(=O)O)C(=O)N[C@@H](Cc1ccccc1)C(=O)NCCCC[C@H](NC(=O)[C@H](Cc1ccccc1)NC(=O)[C@H](CC(=O)O)NC(=O)CNC(=O)[C@H](CCCN=C(N)N)NC(=O)CCCCC)C(N)=O` was 2.3 µM.
For `N=C(N)NCCC[C@H](NC(=O)c1ccccc1)C(=O)NCC(=O)N[C@@H](CC(=O)O)C(=O)N[C@@H](Cc1ccccc1)C(=O)NC1CC(NC(=O)[C@H](Cc2ccccc2)NC(=O)[C@H](CC(=O)O)NC(=O)CNC(=O)[C@H](CCCN=C(N)N)NC(=O)c2ccccc2)CC(C(=O)N[C@@H](CCCN=C(N)N)C(=O)NCC(=O)N[C@@H](CC(=O)O)C(=O)N[C@@H](Cc2ccccc2)C(=O)O)C1` (stereo partly specified), the IC50 turned out to be 7.4 µM.
`N=C(N)NCCC[C@H](NC(=O)CCC(=O)N[C@@H](CCCNC(=N)N)C(=O)NCC(=O)N[C@@H](CC(=O)O)C(=O)N[C@@H](Cc1ccccc1)C(=O)O)C(=O)NCC(=O)N[C@@H](CC(=O)O)C(=O)N[C@@H](Cc1ccccc1)C(=O)O` (I: RGDF-OH / II: RGDF-OH; linker I:N-II:N via Suc): the IC50 amounted to 15 µM.
With `NC(=O)[C@H](CCCCNC(=O)[C@H](Cc1ccccc1)NC(=O)[C@H](CC(=O)O)NC(=O)CNC(=O)[C@@H](N)CCCN=C(N)N)NC(=O)[C@H](Cc1ccccc1)NC(=O)[C@H](CC(=O)O)NC(=O)CNC(=O)[C@@H](N)CCCN=C(N)N` the figure was 35 µM.
On to `N=C(N)NCCC[C@H](NC(=O)CCCCC(=O)N[C@@H](CCCNC(=N)N)C(=O)NCC(=O)N[C@@H](CC(=O)O)C(=O)N[C@@H](Cc1ccccc1)C(=O)O)C(=O)NCC(=O)N[C@@H](CC(=O)O)C(=O)N[C@@H](Cc1ccccc1)C(=O)O` (I: RGDF-OH / II: RGDF-OH; linker I:N-II:N via Adipoyl), for which the IC50 turned out to be 14 µM.
As for `N=C(N)NCCC[C@H](NC(=O)C1Cc2ccccc2OC1=O)C(=O)NCC(=O)N[C@@H](CC(=O)O)C(=O)N[C@@H](Cc1ccccc1)C(=O)N1CCC[C@H]1C(=O)NCCCC[C@H](NC(=O)[C@@H]1CCCN1C(=O)[C@H](Cc1ccccc1)NC(=O)[C@H](CC(=O)O)NC(=O)CNC(=O)[C@H](CCCNC(=N)N)NC(=O)C1Cc2ccccc2OC1=O)C(N)=O` (stereo partly specified) (I: X2-RGDFPK-NH2 / II: X2-RGDFP; amide I:6-II:C), the IC50 was 2 µM.
On to `N=C(N)NCCC[C@H](NC(=O)[C@H](CO)NC(=O)c1ccc(NC(=N)N)cc1)C(=O)NCC(=O)N[C@@H](CC(=O)O)C(=O)N[C@@H](Cc1ccccc1)C(=O)N1CCC[C@H]1C(=O)NCCCC[C@H](NC(=O)[C@@H]1CCCN1C(=O)[C@H](Cc1ccccc1)NC(=O)[C@H](CC(=O)O)NC(=O)CNC(=O)[C@H](CCCNC(=N)N)NC(=O)[C@H](CO)NC(=O)c1ccc(NC(=N)N)cc1)C(N)=O` (I: {Benzoyl(4-guanidino)}-SRGDFPK-NH2 / II: {Benzoyl(4-guanidino)}-SRGDFP; amide I:7-II:C), for which the IC50 amounted to 0.087 µM.
The value for `NCC(=O)N[C@@H](CCCN=C(N)N)C(=O)NCC(=O)N[C@@H](CC(=O)O)C(=O)N[C@@H](Cc1ccccc1)C(=O)NCC(=O)Nc1ccc(C(=O)NCC(=O)N[C@@H](CCCN=C(N)N)C(=O)NCC(=O)N[C@@H](CC(=O)O)C(=O)N[C@@H](Cc2ccccc2)C(=O)O)cc1` (H-GRGDFG[4Abz]GRGDF-OH) was 35 µM; that for `N=C(N)NCCC[C@@H](NC(=O)c1ccccc1C(=O)N[C@@H](CCCN=C(N)N)C(=O)NCC(=O)N[C@@H](CC(=O)O)C(=O)N[C@@H](Cc1ccccc1)C(=O)O)C(=O)NCC(=O)N[C@H](CC(=O)O)C(=O)N[C@H](Cc1ccccc1)C(=O)O` was 13 µM.
`NCC(=O)N[C@@H](CCCN=C(N)N)C(=O)NCC(=O)N[C@@H](CC(=O)O)C(=O)N[C@@H](Cc1ccccc1)C(=O)NCC(=O)Nc1cc(NC(=O)CNC(=O)[C@H](Cc2ccccc2)NC(=O)[C@H](CC(=O)O)NC(=O)CNC(=O)[C@H](CCCN=C(N)N)NC(=O)CN)cc(C(=O)NCC(=O)N[C@@H](CCCN=C(N)N)C(=O)NCC(=O)N[C@@H](CC(=O)O)C(=O)N[C@@H](Cc2ccccc2)C(N)=O)c1`: the half-inhibitory concentration (IC50) was determined as 33 µM.
In the case of `NCC(=O)N[C@@H](CCCN=C(N)N)C(=O)NCC(=O)N[C@@H](CC(=O)O)C(=O)N[C@@H](Cc1ccccc1)C(=O)NCC(=O)Nc1cccc(C(=O)NCC(=O)N[C@@H](CCCN=C(N)N)C(=O)NCC(=O)N[C@@H](CC(=O)O)C(=O)N[C@@H](Cc2ccccc2)C(=O)O)c1` (H-GRGDFG[3Abz]GRGDF-OH), the IC50 was found to be 19 µM.
The value for `NC(N)=NCCC[C@H](NC(=O)C1CC(NC(=O)[C@H](Cc2ccccc2)NC(=O)[C@H](CC(=O)O)NC(=O)CNC(=O)[C@@H](N)CCCN=C(N)N)CC(NC(=O)[C@H](Cc2ccccc2)NC(=O)[C@H](CC(=O)O)NC(=O)CNC(=O)[C@@H](N)CCCN=C(N)N)C1)C(=O)NCC(=O)N[C@@H](CC(=O)O)C(=O)N[C@@H](Cc1ccccc1)C(=O)O` (stereo partly specified) was 22 µM; that for `N=C(N)NCCC[C@H](NC(=O)c1ccccc1)C(=O)NCC(=O)N[C@@H](CC(=O)O)C(=O)N[C@@H](Cc1ccccc1)C(=O)N1CCC[C@H]1C(=O)NCCCC[C@H](NC(=O)[C@@H]1CCCN1C(=O)[C@H](Cc1ccccc1)NC(=O)[C@H](CC(=O)O)NC(=O)CNC(=O)[C@H](CCCN=C(N)N)NC(=O)c1ccccc1)C(N)=O` (I: Bz-RGDFPK-NH2 / II: Bz-RGDFP; amide I:6-II:C) was 2.2 µM; that for `N=C(N)NCCC[C@H](NC(=O)CCCC(=O)N[C@@H](CCCNC(=N)N)C(=O)NCC(=O)N[C@@H](CC(=O)O)C(=O)N[C@@H](Cc1ccccc1)C(=O)O)C(=O)NCC(=O)N[C@@H](CC(=O)O)C(=O)N[C@@H](Cc1ccccc1)C(=O)O` (I: RGDF-OH / II: RGDF-OH; linker I:N-II:N via Glutaryl) was 15 µM.
The value for `CC(=O)N[C@@H](CCCN=C(N)N)C(=O)NCC(=O)N[C@@H](CC(=O)O)C(=O)N[C@@H](Cc1ccccc1)C(=O)N1CCC[C@H]1C(=O)NCCCC[C@H](NC(=O)[C@@H]1CCCN1C(=O)[C@H](Cc1ccccc1)NC(=O)[C@H](CC(=O)O)NC(=O)CNC(=O)[C@H](CCCN=C(N)N)NC(C)=O)C(N)=O` (I: Ac-RGDFPK-NH2 / II: Ac-RGDFP; amide I:6-II:C) was 4.1 µM; that for `CCCCCC(=O)N[C@@H](CCCN=C(N)N)C(=O)NCC(=O)N[C@@H](CC(=O)O)C(=O)N[C@@H](Cc1ccccc1)C(=O)N1CCC[C@H]1C(=O)NCCCC[C@H](NC(=O)[C@@H]1CCCN1C(=O)[C@H](Cc1ccccc1)NC(=O)[C@H](CC(=O)O)NC(=O)CNC(=O)[C@H](CCCN=C(N)N)NC(=O)CCCCC)C(N)=O` (I: Hexanoyl-RGDFPK-NH2 / II: Hexanoyl-RGDFP; amide I:6-II:C) was 1.2 µM.
On to `NC(=O)c1cc(NC(=O)CNC(=O)[C@@H]2CCCN2C(=O)[C@H](Cc2ccccc2)NC(=O)[C@H](CC(=O)O)NC(=O)CNC(=O)[C@@H](N)CCCN=C(N)N)cc(NC(=O)CNC(=O)[C@@H]2CCCN2C(=O)[C@H](Cc2ccccc2)NC(=O)[C@H](CC(=O)O)NC(=O)CNC(=O)[C@@H](N)CCCN=C(N)N)c1` (I: H-RGDFPG / II: H-RGDFPG; linker I:C-II:C via X1), for which the IC50 stood at 13 µM.
Consider `NCC(=O)N[C@@H](CCCN=C(N)N)C(=O)NCC(=O)N[C@@H](CC(=O)O)C(=O)N[C@@H](Cc1ccccc1)C(=O)NCC(=O)Nc1ccccc1C(=O)NCC(=O)N[C@@H](CCCN=C(N)N)C(=O)NCC(=O)N[C@@H](CC(=O)O)C(=O)N[C@@H](Cc1ccccc1)C(=O)O` (H-GRGDFG[2Abz]GRGDF-OH), for which the half-inhibitory concentration (IC50) was found to be 63 µM.
